This note sets out measurements from US10138233B2, “Imidazole compounds as modulators of FSHR and uses thereof” (Merck Patent GmbH, priority 2013, dated 2018).

The target in one experiment is T1, FSHR (Homo sapiens, UniProt P23945).
T1 construct: expressed in transfected cells; host or cells: CHO cells, clone Cho-FSHR-LUC-1-1-43
T1 sequence (P23945 18-695): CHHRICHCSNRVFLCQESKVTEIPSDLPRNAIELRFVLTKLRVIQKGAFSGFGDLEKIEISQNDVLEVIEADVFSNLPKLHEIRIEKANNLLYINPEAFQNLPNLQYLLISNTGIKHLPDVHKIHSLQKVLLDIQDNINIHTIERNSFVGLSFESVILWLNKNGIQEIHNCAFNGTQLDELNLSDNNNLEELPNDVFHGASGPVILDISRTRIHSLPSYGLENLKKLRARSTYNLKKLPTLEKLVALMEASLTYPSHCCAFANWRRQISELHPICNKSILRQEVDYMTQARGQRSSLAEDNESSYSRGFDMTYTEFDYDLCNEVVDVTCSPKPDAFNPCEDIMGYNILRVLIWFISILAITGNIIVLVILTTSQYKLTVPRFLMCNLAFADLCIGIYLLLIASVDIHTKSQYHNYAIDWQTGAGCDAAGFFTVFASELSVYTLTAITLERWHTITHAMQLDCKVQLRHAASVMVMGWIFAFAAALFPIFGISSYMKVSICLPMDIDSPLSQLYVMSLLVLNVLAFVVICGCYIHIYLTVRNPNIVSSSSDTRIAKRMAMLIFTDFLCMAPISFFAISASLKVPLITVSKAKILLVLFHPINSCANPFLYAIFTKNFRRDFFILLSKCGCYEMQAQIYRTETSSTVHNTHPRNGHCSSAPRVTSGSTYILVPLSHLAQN
Nature of the experiment: EC50 of cyclic AMP production in CHO FSHR cells + EC20 FSH (Assay A). The format is cell-based. The settings on record: CHO-FSHR-LUC cells, in presence of EC20 FSH, cAMP HTRF, 1 h 37° C.

The target of experiment [1] is T2, follicle-stimulating hormone (FSH) receptor (Rattus norvegicus, UniProt P20395).
T2 construct: Rat Granulosa EC50 FSH (Assay B); endogenous in cells; host or cells: rat granulosa cells
T2 sequence (P20395 18-692): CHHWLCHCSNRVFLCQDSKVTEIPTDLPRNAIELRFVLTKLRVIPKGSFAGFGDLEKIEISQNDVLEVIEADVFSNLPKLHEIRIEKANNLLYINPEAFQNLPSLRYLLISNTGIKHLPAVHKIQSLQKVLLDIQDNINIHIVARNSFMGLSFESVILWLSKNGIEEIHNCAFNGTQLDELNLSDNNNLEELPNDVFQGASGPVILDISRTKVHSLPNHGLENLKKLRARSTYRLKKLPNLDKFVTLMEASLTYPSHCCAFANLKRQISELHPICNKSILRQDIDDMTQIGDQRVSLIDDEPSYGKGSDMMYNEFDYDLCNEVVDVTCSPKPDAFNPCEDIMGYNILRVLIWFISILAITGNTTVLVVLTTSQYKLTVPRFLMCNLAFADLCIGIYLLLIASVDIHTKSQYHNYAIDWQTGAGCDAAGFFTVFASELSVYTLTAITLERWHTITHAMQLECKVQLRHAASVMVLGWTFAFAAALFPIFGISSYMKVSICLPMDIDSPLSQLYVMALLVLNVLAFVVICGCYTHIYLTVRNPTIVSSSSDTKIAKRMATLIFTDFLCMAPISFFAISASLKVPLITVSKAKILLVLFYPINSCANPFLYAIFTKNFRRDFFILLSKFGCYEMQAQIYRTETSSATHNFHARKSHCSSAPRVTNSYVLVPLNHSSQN
The experiment in a line: Rat Granulosa EC50 FSH (Assay B). The format is cell-based. To be noted: rat granulosa cells, per Yanofsky et al. 2006.

With `COc1cc2c(cc1OC(C)C)-n1c(-c3ccsc3)nc(C(=O)N3CCCN(C(=O)C4CCC4)CC3)c1CC2` [Compound 6], the EC50 (on FSHR; in experiment [1]) was less than 0.1 µM throughout.
In the case of `COc1cc2c(cc1OC(C)C)-n1c(-c3cccs3)nc(C(=O)N3CCCN(C(=O)C4CCC4)CC3)c1CC2` [Compound 7], the values for the EC50 (at FSHR; in experiment [1]) were less than 0.1 µM and 0.1 to 1 µM, respectively.
The like results for `COc1cc2c(cc1OC(C)C)-n1c(-c3cccs3)nc(C(=O)N(C)C(C)(C)C)c1CC2` [Compound 11, 8-Isopropoxy-7-methoxy-1-thiophen-2-yl-4,5-dihydro-imidazo[1,5-a]quinoline-3-carboxylic acid tert-butyl-methyl-amide] were, in that order, 0.1 to 1 µM and greater than 5 µM.
The matching figures for `COc1cc2c(cc1CC(C)C)-n1c(-c3ccc(F)s3)nc(C(=O)N3CCOCC3(C)C)c1CC2` [Compound 19, (3,3-Dimethyl-morpholin-4-yl)-[1-(5-fluoro-thiophen-2-yl)-8-isobutyl-7-methoxy-4,5-dihydro-imidazo[1,5-a]quinolin-3-yl]-methanone]: less than 0.1 µM and 0.1 to 1 µM.
Consider `COc1cc2c(cc1CC(C)C)-n1c(-c3ccc(F)s3)nc(C(=O)N(C)C(C)(C)C)c1CC2` [Compound 21, 1-(5-Fluoro-thiophen-2-yl)-8-isobutyl-7-methoxy-4,5-dihydro-imidazo[1,5-a]quinoline-3-carboxylic acid tert-butyl-methyl-amide], for which the 50% effective concentration (EC50) is less than 0.1 µM on FSHR and 1 to 5 µM in experiment [1].
With `COc1cc2c(cc1CC(C)C)-n1c(-c3cccs3)nc(C(=O)N(C)CCN3CCOC3=O)c1CC2` [Compound 25, 8-Isobutyl-7-methoxy-1-thiophen-2-yl-4,5-dihydro-imidazo[1,5-a]quinoline-3-carboxylic acid methyl-[2-(2-oxo-oxazolidin-3-yl)-ethyl]-amide], the concentration for a half-maximal effect (EC50) is less than 0.1 µM at FSHR and 0.1 to 1 µM in experiment [1].
With `COc1cc2c(cc1CC(C)C)-n1c(-c3ccc[nH]3)nc(C(=O)N3CCOCC3(C)C)c1CC2` [Compound 30, (3,3-Dimethyl-morpholin-4-yl)-[8-isobutyl-7-methoxy-1-(1H-pyrrol-2-yl)-4,5-dihydro-imidazo[1,5-a]quinolin-3-yl]-methanone], the values for the EC50 (at FSHR; in experiment [1]) were 0.1 to 1 µM and greater than 5 µM, respectively.
Regarding `COc1cc2c(cc1OC(C)C)-n1c(-c3cscc3C)nc(C(=O)N3CCOCC3(C)C)c1CC2` [Compound 120], the EC50 on FSHR is less than 0.1 µM.
Regarding `COc1cc2c(cc1OC(C)C)-n1c(-c3cccc4c3OCCO4)nc(C(=O)N3CCOCC3(C)C)c1CC2` [Compound 121], on FSHR, the EC50 is greater than 5 µM.
`COc1cc2c(cc1OC(C)C)-n1c(-c3cc(F)c(F)c(Cl)c3)nc(C(=O)N3CCOCC3(C)C)c1CC2` [Compound 122]: on FSHR, the half-maximal effective concentration (EC50) is 0.1 to 1 µM.
The same measure, in the same setting: to `COc1cc2c(cc1OC(C)C)-n1c(-c3ccc(F)c(Cl)c3F)nc(C(=O)N3CCOCC3(C)C)c1CC2` [Compound 123] belongs 1 to 5 µM; to `COc1cc2c(cc1OC(C)C)-n1c(-c3ccc(C#N)c(C(F)(F)F)c3)nc(C(=O)N3CCOCC3(C)C)c1CC2` [Compound 124], 1 to 5 µM.
Regarding `COc1ccc(-c2nc(C(=O)N3CCOCC3(C)C)c3n2-c2cc(OC(C)C)c(OC)cc2CC3)cc1C` [Compound 125], the EC50 at FSHR was 1 to 5 µM.
`COc1cc2c(cc1OC(C)C)-n1c(-c3ccc(C)c(F)c3)nc(C(=O)N3CCOCC3(C)C)c1CC2` [Compound 126]: on FSHR, the concentration for a half-maximal effect (EC50) fell in the range of 0.1 to 1 µM.
For `COc1cc2c(cc1OC(C)C)-n1c(-c3cc(F)ccc3F)nc(C(=O)N3CCOCC3(C)C)c1CC2` [Compound 127], the concentration giving a half-maximal response (EC50) on FSHR lay within 0.1 to 1 µM.
In the case of `COc1ccc(-c2nc(C(=O)N3CCOCC3(C)C)c3n2-c2cc(OC(C)C)c(OC)cc2CC3)c(C)c1` [Compound 128], the EC50 on FSHR was in the range of 1 to 5 µM.
As for `COc1cc2c(cc1OC(C)C)-n1c(-c3cc(C)sc3C)nc(C(=O)N3CCOCC3(C)C)c1CC2` [Compound 129], the EC50 at FSHR was in the range of 0.1 to 1 µM.
Still for that read-out and setting: with `[2H]C([2H])([2H])N(C(=O)c1nc(-c2cccs2)n2c1CCc1cc(OC)c(-c3ccn(C)n3)cc1-2)C1(C)COC1` [Compound 130, 7-Methoxy-8-(1-methyl-1H-pyrazol-3-yl)-1-thiophen-2-yl-4,5-dihydro-imidazo[1,5-a]quinoline-3-carboxylic acid methyl-d3-(3-methyl-oxetan-3-yl)-amide] the figure was 0.1 to 1 µM; with `COc1cc2c(cc1OC(C)C)-n1c(C3=CCNCC3)nc(C(=O)N3CCOCC3(C)C)c1CC2` [Compound 131], greater than 5 µM.
For `COc1cc2c(cc1-c1n[nH]c(=O)o1)-n1c(-c3cccs3)nc(C(=O)N(C)C(C)(C)C)c1CC2` [Compound 132, 7-Methoxy-8-(5-oxo-4,5-dihydro-[1,3,4]oxadiazol-2-yl)-1-thiophen-2-yl-4,5-dihydro-imidazo[1,5-a]quinoline-3-carboxylic acid tert-butyl-methyl-amide], the EC50 on FSHR was in the range of 0.1 to 1 µM.
For the compound `COc1cc2c(cc1-c1n[nH]c(=S)o1)-n1c(-c3cccs3)nc(C(=O)N(C)C(C)(C)C)c1CC2` [Compound 133, 7-Methoxy-1-thiophen-2-yl-8-(5-thioxo-4,5-dihydro-[1,3,4]oxadiazol-2-yl)-4,5-dihydro-imidazo[1,5-a]quinoline-3-carboxylic acid tert-butyl-methyl-amide], the EC50 on FSHR was less than 0.1 µM.
On to `COc1cc2c(cc1OC(C)C)-n1c(-c3cccs3)nc(C(=O)NC3(CO)COC3)c1CO2` [Compound 137, 8-Isopropoxy-7-methoxy-1-thiophen-2-yl-4H-5-oxa-2,9b-diaza-cyclopenta[a]naphthalene-3-carboxylic acid (3-hydroxymethyl-oxetan-3-yl)-amide], for which, on FSHR, the EC50 lay in the range of 1 to 5 µM.
For the compound `COc1cc2c(cc1OC(C)C)-n1c(-c3cccs3)nc(C(=O)NC3(C)COC3)c1CO2` [Compound 138, 8-Isopropoxy-7-methoxy-1-thiophen-2-yl-4H-5-oxa-2,9b-diaza-cyclopenta[a]naphthalene-3-carboxylic acid (3-methyl-oxetan-3-yl)-amide], at FSHR, the concentration for a half-maximal effect (EC50) was in the range of 1 to 5 µM.
Take `COc1cc2c(cc1OC(C)C)-n1c(-c3cccc4c3OCO4)nc(C(=O)N3CCOCC3(C)C)c1CC2` [Compound 141]: at FSHR, the half-maximal effective concentration (EC50) fell in the range of 0.1 to 1 µM.
With `COc1cc2c(cc1OC(C)C)-n1c(-c3cccc(Cl)c3Cl)nc(C(=O)N3CCOCC3(C)C)c1CC2` [Compound 142], the EC50 on FSHR was 0.1 to 1 µM.
For `COC(=O)c1nc(C(=O)N2CCOCC2(C)C)c2n1-c1cc(OC(C)C)c(OC)cc1CC2` [Compound 144, 3-(3,3-Dimethyl-morpholine-4-carbonyl)-8-isopropoxy-7-methoxy-4,5-dihydro-imidazo[1,5-a]quinoline-1-carboxylic acid methyl ester], the EC50 on FSHR is 1 to 5 µM.
For `COc1cc2c(cc1OC(C)C)-n1c(C#N)nc(C(=O)N3CCOCC3(C)C)c1CC2` [Compound 145, 3-(3,3-Dimethyl-morpholine-4-carbonyl)-8-isopropoxy-7-methoxy-4,5-dihydro-imidazo[1,5-a]quinoline-1-carbonitrile], the EC50 on FSHR is greater than 5 µM.
Turning to `COc1cc2c(cc1CC(C)C)-n1c(-c3sccc3C)nc(C(=O)N(C)C(C)(C)C)c1CC2` [Compound 146, 8-Isobutyl-7-methoxy-1-(3-methyl-thiophen-2-yl)-4,5-dihydro-imidazo[1,5-a]quinoline-3-carboxylic acid tert-butyl-methyl-amide], the EC50 at FSHR lay in the range of 0.1 to 1 µM.
For the compound `COc1cc2c(cc1-c1ccn(C)n1)-n1c(-c3ccc(C)s3)nc(C(=O)N3CCOCC3(C)C)c1CC2` [Compound 147, (3,3-dimethylmorpholino)(7-methoxy-8-(1-methyl-1H-pyrazol-3-yl)-1-(5-methylthiophen-2-yl)-4,5-dihydroimidazo[1,5-a]quinolin-3-yl)methanone], the EC50 at FSHR was 0.1 to 1 µM.
